Measurements reported in patent US8785383B2, “Mast cell stabilizers in the treatment of obesity” (The Brigham and Women's Hospital, Inc., priority 2007, dated 2014).
“Also recorded” adds a separate entry of the source.

Assays:
[1] = tested on: Western diet-fed wild-type (C57BL/6) mice; test: Diet-induced obesity, Western diet with daily i.p. DSCG; format: in vivo, mouse
Description: (§1) Wild-type (C57BL/6), Il6^−/− (C57BL/6, N11), and Ifng^−/− (C57BL/6, N10) mice were purchased from the Jackson Laboratories (Bar Harbor, Me.). Congenic Tnf^−/− (C56BL/6, N10) and mast cell-deficient Kit^W-sh/W-sh (C57BL/6, N>10) mice were generated by back-crossing to the C57BL/6 background as described (Sun, et al. Nat. Med. 13:719-724 (2007); Wolters, et al., Clin Exp Allergy 35:82-88 (2005)). The standing committee of Harvard Medical School approved all animal research protocols, and all mice were housed in a pathogen-free facility. To induce obesity, we fed 6-week-old mice (females and males) a Western diet (Research Diet, New Brunswick, N.J.) for 12-20 weeks. Mouse body weight was monitored weekly. By the end of each course of Western diet consumption, we performed glucose tolerance and energy expenditure assays as reported previously (Yang, et al., Nat. Cell Biol. 9:970-977 (2007)). Mouse blood samples were collected for serum adipokine measurement. Subcutaneous, visceral, and brown fat and skeletal muscle were harvested individually for protein extraction and paraffin section preparation. Tissue protein extracts were used for ELISA, immunoblot analysis, and cysteinyl cathepsin active site labeling. […]

[2] = tested on: Western diet-fed wild-type (C57BL/6) mice; test: Glucose tolerance assay in Western diet-fed mice; format: in vivo, mouse; conditions: WT mice treated with DSCG
Description: as §1

[3] = tested on: Western diet-fed wild-type (C57BL/6) mice; test: Energy expenditure assay; format: in vivo, mouse; conditions: DSCG-treated WT mice vs untreated WT mice
Description: as §1

[4] = tested on: IL6, TNF-α, IFN-γ, MCP-1, adiponectin, MMP-9, CatS, CatL, leptin in serum and/or WAT; test: ELISA of serum and WAT adipokines; format: in vivo, mouse
Description: Mouse body weight was monitored weekly. […] Mouse blood samples were collected for serum adipokine measurement.
Frozen mouse WAT was pulverized and lysed in a RIPA buffer (Pierce, Rockford, Ill.) containing a protease inhibitor cocktail (Calbiochem, San Diego, Calif.). Both WAT and serum samples were subjected to ELISA analysis for IL6 (BD Biosciences), TNF-α (PeproTech, Rocky Hill, N.J.), IFN-γ (PeproTech), MCP-1 (PeproTech), adiponectin (R&D Systems), MMP-9 (R&D Systems), CatS (R&D Systems), and CatL (Bender MedSystems Inc, Burlingame, Calif.) according to manufacturers' instructions.

[5] = tested on: CD117-positive mast cells and CD31-positive areas in WAT and muscle; test: Immunohistology of WAT and muscle (CD117 mast cells, CD31 microvessels); format: in vivo, mouse; conditions: DSCG-treated vs untreated mice, same dietary conditions
Description: Human and mouse WAT and muscle tissues were fixed with 10% formalin overnight and embedded in paraffin, from which 5 μm sections were prepared. Anti-human mast cell tryptase (mouse monoclonal, 1:100, Dako, TRAPPES CEDEX, France), anti-mouse mast cell CD117 (rat monoclonal, 1:10, eBiosciences, Inc., San Diego, Calif.), and anti-mouse CD31 (rat monoclonal, 1:400, Pharmingen, San Diego, Calif.) immunostained for mast cells and microvessels on WAT, muscle, and liver sections. Researchers blinded to the origin of tissue counted human tryptase-positive and CD117-positive mast cells, and data are presented as cell numbers per mm^2. CD31-positive areas in WAT and muscle were determined using Image-Pro Plus software as described, and data were presented as percentage of CD31-positive areas (Wang, et al., J. Biol. Chem. 281:6020-6029 (2006); Wild, Microvasc Res. 59:368-376 (2000)). Hematoxylin and eosin staining assisted histologic assessment of the GI tract.

[6] = tested on: UCP1, fibronectin, Glut4, insulin receptor; test: Immunoblot analysis of tissue protein extracts; format: in vivo, mouse
Description: Wild-type (C57BL/6), Il6^−/− (C57BL/6, N11), and Ifng^−/− (C57BL/6, N10) mice were purchased from the Jackson Laboratories (Bar Harbor, Me.). Congenic Tnf^−/− (C56BL/6, N10) and mast cell-deficient Kit^W-sh/W-sh (C57BL/6, N>10) mice were generated by back-crossing to the C57BL/6 background as described (Sun, et al. Nat. Med. 13:719-724 (2007); Wolters, et al., Clin Exp Allergy 35:82-88 (2005)). The standing committee of Harvard Medical School approved all animal research protocols, and all mice were housed in a pathogen-free facility. To induce obesity, we fed 6-week-old mice (females and males) a Western diet (Research Diet, New Brunswick, N.J.) for 12-20 weeks. Mouse body weight was monitored weekly. By the end of each course of Western diet consumption, we performed glucose tolerance and energy expenditure assays as reported previously (Yang, et al., Nat. Cell Biol. 9:970-977 (2007)). Mouse blood samples were collected for serum adipokine measurement. Subcutaneous, visceral, and brown fat and skeletal muscle were harvested individually for protein extraction and paraffin section preparation. Tissue protein extracts were used for ELISA, immunoblot analysis, and cysteinyl cathepsin active site labeling. For immunoblot analysis, 30 μg of proteins were separated on an 8% SDS-PAGE to detect 220 kDa fibronectin (mouse monoclonal, 1:100, NeoMarkers, Fremont, Calif.) and 200 kDa insulin receptor (mouse monoclonal, 1:100, Calbiochem, San Diego, Calif.) or a 12% SDS-PAGE to detect Glut4 (mouse monoclonal, 1:200, R&D Systems, Minneapolis, Minn.), UCP1 (rabbit polyclonal, 1:3000, Abcam, Cambridge, Mass.), actin (mouse monoclonal, 1:500, Abcam), and glyceraldehyde-3-phosphate dehydrogenase (GAPDH, rabbit polyclonal, 1:1000, Santa Cruz Biotechnolog, Santa Cruz, Calif.). For cathepsin active site labeling, 30 μg of proteins were incubated with 1 μl of 600 mM dithiothreitol and 1 μl of [^125I]-JPM in a pH5.5 buffer as previously described. After incubating the reaction mixture at 37° C. for 1 hour, labeled proteins were separated on a 12% SDS-PAGE. Gel was stained with Coomassie blue, destained, dried, and exposed to an x-ray film. The liver and GI tract were harvested for histologic analysis.

[7] = tested on: liver, gastrointestinal tract, pancreas
Description: Wild-type (C57BL/6), Il6^−/− (C57BL/6, N11), and Ifng^−/− (C57BL/6, N10) mice were purchased from the Jackson Laboratories (Bar Harbor, Me.). Congenic Tnf^−/− (C56BL/6, N10) and mast cell-deficient Kit^W-sh/W-sh (C57BL/6, N>10) mice were generated by back-crossing to the C57BL/6 background as described (Sun, et al. Nat. Med. 13:719-724 (2007); Wolters, et al., Clin Exp Allergy 35:82-88 (2005)). The standing committee of Harvard Medical School approved all animal research protocols, and all mice were housed in a pathogen-free facility. To induce obesity, we fed 6-week-old mice (females and males) a Western diet (Research Diet, New Brunswick, N.J.) for 12-20 weeks. Mouse body weight was monitored weekly. […]
Human and mouse WAT and muscle tissues were fixed with 10% formalin overnight and embedded in paraffin, from which 5 μm sections were prepared. […] Researchers blinded to the origin of tissue counted human tryptase-positive and CD117-positive mast cells, and data are presented as cell numbers per mm^2. CD31-positive areas in WAT and muscle were determined using Image-Pro Plus software as described, and data were presented as percentage of CD31-positive areas (Wang, et al., J. Biol. Chem. 281:6020-6029 (2006); Wild, Microvasc Res. 59:368-376 (2000)). […]

[8] = tested on: obese and diabetic WT mice; test: Treatment of established diet-induced obesity and diabetes (four treatment groups); format: in vivo, mouse
Description: To assess the direct participation of mast cells in obesity, we studied mast cell-deficient Kit^W-sh/W-sh mice in diet-induced obesity. While Kit^W-sh/W-sh mice lack mature mast cells due to an inversion mutation of the c-Kit promoter region (Duttlinger, et al., Proc. Nat'l Acad. Sci. USA 92:3754-3758 (1995)), numbers and activities of other leukocytes in blood are normal, permitting probing of mast cell functions in vivo. […] To extend our observations, we fed WT mice a Western diet for 12 weeks to produce obesity and diabetes, and grouped these obese and diabetic mice into four treatment groups: I, continued feeding with a Western diet; II, switched to a chow diet; III, continued feeding with a Western diet together with a daily i.p. injection of DSCG; IV, switched to a chow diet and treated with DSCG.

[9] = tested on: mast cell-deficient Kit^W-sh/W-sh mice; test: DSCG treatment of mast cell-deficient Kit W-sh/W-sh mice on Western diet; format: in vivo, mouse
Description: as §1

SMILES: O=C(O)c1cc(=O)c2c(OCC(O)COc3cccc4oc(C(=O)O)cc(=O)c34)cccc2o1 [DSCG, disodium cromoglycate]
- body weight gain ([1]; male WT mice, Western diet 12 weeks, daily i.p. injection, vs untreated WT): attenuated body weight gain
- total subcutaneous and visceral fat ([1]; male mice, Western diet, vs untreated WT controls): significantly less total subcutaneous and visceral fat
- glucose tolerance [2]: significantly improved glucose tolerance
- O2 consumption and CO2 production [3]: significantly more O2 consumption and CO2 production
- resting metabolic rate [3]: increased resting metabolic rate
- serum leptin levels ([4]; male and female mice, Western diet, vs WT controls): significantly lower levels
- CatS levels in serum (ELISA) ([4]; serum): reduced significantly
- CatL level ([4]; serum and/or WAT, Western diet): did not change significantly
- IFN-γ level ([4]; serum and/or WAT, Western diet): lower levels
- IL6 level ([4]; serum and/or WAT, Western diet): lower levels
- MCP-1 level ([4]; serum and/or WAT, Western diet): lower levels
- TNF-α level ([4]; serum and/or WAT, Western diet): lower levels
- adiponectin level ([4]; serum and/or WAT, Western diet): did not change significantly
- cathepsin S (CatS) level ([4]; serum and/or WAT, Western diet): lower levels
- matrix metalloprotease-9 (MMP-9) level ([4]; serum and/or WAT, Western diet): lower levels
- mast cell numbers in WAT [5]: mast cell numbers similar to WAT from untreated mice
- Glut4 in WAT and muscle ([6]; DSCG-treated mice): more
- fibronectin in WAT and muscle ([6]; DSCG-treated mice): more
- insulin receptor (IR) in WAT and muscle ([6]; DSCG-treated mice): more
- brown fat UCP1 expression ([6]; brown fat, vs WT control mice): obviously higher brown fat UCP1 expression
- mast cells or lipid-loaded adipocytes in livers ([7]; Western diet-fed WT mice treated with DSCG): did not detect mast cells or lipid-loaded adipocytes
- food/water intake and toxic effect ([7]; mouse, in vivo): neither reduced food/water intake nor any toxic effect of DSCG
- body weight decrease ([8]; group III: obese mice, continued Western diet plus daily i.p. DSCG, eight weeks): 12%
- glucose tolerance ([8]; group IV: chow diet plus DSCG, compared among four groups): highest glucose tolerance among the four groups
- body weight at which mice stabilized ([8]; group IV: chow diet plus DSCG, eight weeks): 40˜41 grams
- body weight decrease ([8]; group IV: obese mice switched to chow diet and treated with DSCG, eight weeks): 19%
- glucose tolerance in Kit^W-sh/W-sh mice [9]: did not further change
- body weight (gain) of Kit^W-sh/W-sh mice ([9]; Western diet): did not further affect the body weight; also recorded: did not further change
